Results as given in patent US10189803B2, “Synthesis of therapeutic and diagnostic drugs centered on regioselective and stereoselective ring opening of aziridinium ions” (ILLINOIS INSTITUTE OF TECHNOLOGY, priority 2008, dated 2019).

Tests used:
[1] = In vivo biodistribution of radiolabeled complexes in normal athymic mice; conditions: for percent injected dose per gram, Blood / percent injected dose per gram, Femur / percent injected dose per gram, Heart / percent injected dose per gram, Kidney / percent injected dose per gram, Liver / percent injected dose per gram, Lung / percent injected dose per gram, Spleen: non-tumor bearing mice, ± SD
Method: The in vivo stability of the radiolabeled complexes was evaluated by performing biodistribution studies in normal athymic mice. Selected organs and the blood were harvested at five time points, 0.5, 1, 4, 8, and 24 h post-injection and the radioactivity measured. […] C-NE3TA radiolabeled with ^153Gd was almost completely cleared from blood, liver, spleen, lung, heart, and femur in less than 4 hours, and radioactivity level in the kidney was 0.16%±0.11 ID/g at 24 hour post-injection (Table 9).
In vivo biodistribution studies oh the radiolabeled metal complexes. Female athymic mice were obtained from Charles River Laboratories (Wilmington, Mass.) at 4-6 weeks of age. The pH of the radiolabeled ligands was adjusted to pH ˜7.0 with 0.5 M sodium bicarbonate (pH 10.5) and diluted in phosphate-buffered saline. The radiolabeled ligands ([…] for ^86Y, ^205/6Bi, ^177Lu, and ^203Pb) were administered to the mice in 200 μL of solution via tail vein injection. The mice (5 per data point) were sacrificed by exsanguination at 0.5, 1, 4, 8, and 24 h. Blood and the major organs were harvested, wet-weighed and the radioactivity measured in a γ-scintillation counter (1480 Wizard, Perkin Elmer). The percent injected dose per gram (% ID/g) was determined for each tissue. The values presented are the mean and standard deviation for each tissue.

[2] = In vitro serum stability of radiolabeled C-NE3TA complexes in human serum (SE-HPLC); assay type: in vitro ADME; conditions: 37° C., up to 11 days
Method: C-NE3TA was radiolabeled with ^90Y, ^177Lu, ^203Pb, ^205/6Bi, or ^153Gd as previously described (Chong, H. S.; Milenic, D. E.; Garmestani, K.; Brady, E. D.; Arora, H.; Pfiester, C.; Brechbiel, M. W., Nucl. Med. Biol. 2006, 33, 459-67; Chong H S, Garmestani K, Bryant Jr., L H Milenic D E, Overstreet T, Birch N, Le N, Brady E D, Brechbiel M W. J. Med. Chem. 2006, 49, 2055-2062). In vitro serum stability of the radiolabeled complexes purified via ion-exchange chromatography was performed to determine if C-NE3TA labeled with the radioisotopes remained stable without transchelation or loss of their respective radionuclide in human serum. This was assessed by measuring the transfer of radionuclide from the complex to serum proteins over the course of 11 days.
In vitro stability of the radiolabeled metal complexes. The stability of the purified radiolabeled complexes was evaluated in human serum (Gemini Bioproducts, Woodland, Calif.) for up to 11 days. The serum stability of the radiolabeled complexes was assessed by measuring the transfer of the radionuclide from each complex to serum proteins using SE-HPLC methods. Radiolabeled complexes were diluted to an appropriate volume that allowed for preparation of multiple samples containing 5-10 μCi and were filter-sterilized using a Millex-GV 0.22 μm filter. This stock solution was then mixed with 1400 μL of sterile normal human serum. Aliquots (200 μL) were drawn and separated into individual tubes for subsequent analysis using aseptic technique. The samples were incubated at 37° C., and at designated intervals, subjected to analysis by SE-HPLC. Samples were loaded onto the HPLC and eluted with PBS, pH 7.4 isocratically at 1 mL/min. […] Radioactivity associated with a transfer to serum proteins generally appeared at ˜6 min.

| SMILES | percent injected dose per gram, Blood ([1]; 0.50 hr) | percent injected dose per gram, Femur ([1]; 0.50 hr) | percent injected dose per gram, Heart ([1]; 0.50 hr) | percent injected dose per gram, Kidney ([1]; 0.50 hr) | percent injected dose per gram, Liver ([1]; 0.50 hr) | percent injected dose per gram, Lung ([1]; 0.50 hr) | percent injected dose per gram, Spleen ([1]; 0.50 hr) | percent injected dose per gram, Blood ([1]; 1.00 hr) | percent injected dose per gram, Femur ([1]; 1.00 hr) | percent injected dose per gram, Heart ([1]; 1.00 hr) | percent injected dose per gram, Kidney ([1]; 1.00 hr) | percent injected dose per gram, Liver ([1]; 1.00 hr) | percent injected dose per gram, Lung ([1]; 1.00 hr) | percent injected dose per gram, Spleen ([1]; 1.00 hr) | percent injected dose per gram, Blood ([1]; 4.00 hr) | percent injected dose per gram, Femur ([1]; 4.00 hr) | percent injected dose per gram, Heart ([1]; 4.00 hr) | percent injected dose per gram, Kidney ([1]; 4.00 hr) | percent injected dose per gram, Liver ([1]; 4.00 hr) | percent injected dose per gram, Lung ([1]; 4.00 hr) | further results |
| --- | --- | --- | --- | --- | --- | --- | --- | --- | --- | --- | --- | --- | --- | --- | --- | --- | --- | --- | --- | --- | --- |
| O=C(O)CNC(Cc1ccc([N+](=O)[O-])cc1)CN1CCN(CC(=O)O)CCN(CC(=O)O)CC1.[177Lu] (stereo not drawn) [^177Lu-C-NE3TA] | 0.93 ± 0.30 % ID/g | 1.06 ± 1.35 % ID/g | 0.37 ± 0.08 % ID/g | 2.78 ± 0.99 % ID/g | 0.82 ± 0.27 % ID/g | 0.87 ± 0.22 % ID/g | 0.33 ± 0.08 % ID/g | 0.31 ± 0.04 % ID/g | 0.39 ± 0.13 % ID/g | 0.19 ± 0.09 % ID/g | 1.57 ± 0.52 % ID/g | 0.69 ± 0.20 % ID/g | 0.42 ± 0.16 % ID/g | 0.28 ± 0.20 % ID/g | 0.12 ± 0.02 % ID/g | 0.36 ± 0.11 % ID/g | 0.08 ± 0.02 % ID/g | 1.34 ± 0.09 % ID/g | 0.50 ± 0.02 % ID/g | 0.17 ± 0.03 % ID/g | percent injected dose per gram, Spleen ([1]; 4.00 hr): 0.19 ± 0.07 % ID/g; percent injected dose per gram, Blood ([1]; 8.00 hr): 0.06 ± 0.01 % ID/g; percent injected dose per gram, Femur ([1]; 8.00 hr): 0.28 ± 0.15 % ID/g; percent injected dose per gram, Heart ([1]; 8.00 hr): 0.10 ± 0.11 % ID/g; percent injected dose per gram, Kidney ([1]; 8.00 hr): 1.16 ± 0.19 % ID/g; percent injected dose per gram, Liver ([1]; 8.00 hr): 0.36 ± 0.05 % ID/g; percent injected dose per gram, Lung ([1]; 8.00 hr): 0.15 ± 0.03 % ID/g; percent injected dose per gram, Spleen ([1]; 8.00 hr): 0.13 ± 0.02 % ID/g; percent injected dose per gram, Blood ([1]; 24.00 hr): 0.01 ± 0.00 % ID/g; percent injected dose per gram, Femur ([1]; 24.00 hr): 0.38 ± 0.10 % ID/g; percent injected dose per gram, Heart ([1]; 24.00 hr): 0.02 ± 0.01 % ID/g; percent injected dose per gram, Kidney ([1]; 24.00 hr): 0.84 ± 0.08 % ID/g; percent injected dose per gram, Liver ([1]; 24.00 hr): 0.31 ± 0.04 % ID/g; percent injected dose per gram, Lung ([1]; 24.00 hr): 0.07 ± 0.03 % ID/g; percent injected dose per gram, Spleen ([1]; 24.00 hr): 0.12 ± 0.05 % ID/g; stability in human serum (in words) [2]: no measurable loss of radioactivity |
| O=C([O-])CNC(Cc1ccc([N+](=O)[O-])cc1)CN1CCN(CC(=O)[O-])CCN(CC(=O)[O-])CC1.[Bi+3] (stereo not drawn) [^205/6Bi-C-NE3TA] | 0.46 ± 0.18 % ID/g | 0.62 ± 0.27 % ID/g | 0.36 ± 0.09 % ID/g | 5.05±0.24 % ID/g | 1.01 ± 0.15 % ID/g | 0.56 ± 0.13 % ID/g | 0.45 ± 0.24 % ID/g | 0.13 ± 0.02 % ID/g | 0.26 ± 0.05 % ID/g | 0.19 ± 0.02 % ID/g | 4.69 ± 0.55 % ID/g | 0.80 ± 0.16 % ID/g | 0.25 ± 0.03 % ID/g | 0.25 ± 0.02 % ID/g | 0.03 ± 0.00 % ID/g | 0.23 ± 0.06 % ID/g | 0.12 ± 0.01 % ID/g | 3.42 ± 0.55 % ID/g | 0.52 ± 0.13 % ID/g | 0.16 ± 0.01 % ID/g | percent injected dose per gram, Kidney ([1]; 0.50 hr, listed as 205/6BiC-NE3TA): 5.05 ± 0.24 % ID/g; percent injected dose per gram, Spleen ([1]; 4.00 hr): 0.18 ± 0.01 % ID/g; percent injected dose per gram, Blood ([1]; 8.00 hr): 0.02 ± 0.01 % ID/g; percent injected dose per gram, Femur ([1]; 8.00 hr): 0.14 ± 0.02 % ID/g; percent injected dose per gram, Heart ([1]; 8.00 hr): 0.09 ± 0.01 % ID/g; percent injected dose per gram, Kidney ([1]; 8.00 hr): 1.99 ± 0.32 % ID/g; percent injected dose per gram, Liver ([1]; 8.00 hr): 0.37 ± 0.08 % ID/g; percent injected dose per gram, Lung ([1]; 8.00 hr): 0.13 ± 0.04 % ID/g; percent injected dose per gram, Spleen ([1]; 8.00 hr): 0.12 ± 0.02 % ID/g; percent injected dose per gram, Blood ([1]; 24.00 hr): 0.01 ± 0.00 % ID/g; percent injected dose per gram, Femur ([1]; 24.00 hr): 0.13 ± 0.01 % ID/g; percent injected dose per gram, Heart ([1]; 24.00 hr): 0.08 ± 0.02 % ID/g; percent injected dose per gram, Kidney ([1]; 24.00 hr): 0.73±0.19 % ID/g; percent injected dose per gram, Liver ([1]; 24.00 hr): 0.14 ± 0.03 % ID/g; percent injected dose per gram, Lung ([1]; 24.00 hr): 0.09 ± 0.01 % ID/g; percent injected dose per gram, Spleen ([1]; 24.00 hr): 0.13 ± 0.01 % ID/g; percent injected dose per gram, Kidney ([1]; 24.00 hr, listed as 205/6BiC-NE3TA): 0.73 ± 0.19 % ID/g; blood and organ clearance (in words) ([1]; normal athymic mice): rapidly cleared from the blood, lung, heart, and femur; stability in human serum (in words) [2]: no measurable loss of radioactivity |
